Experimental data published in patent US11186577B2, “Vasopressin receptor antagonists and products and methods related thereto” (BlackThorn Therapeutics, Inc., priority 2017, dated 2021).
Like-named read-outs stand apart in the source and are kept apart here.

Key:
[1] = target: human Arginine Vasopressin Receptor 1a (AVPR1a) (Homo sapiens (Human), UniProt P37288); assay: Vasopressin V1A receptor antagonist assay (AVP-evoked calcium, FLIPR, CHO-AVPR1a cells); format: cell-based
Procedure, shortened: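 Antagonism measured as reduction of AVP (EC80, set each assay day) calcium response on FLIPR in dye-loaded CHO-AVPR1a cells. Compounds, 3 μM top in 10-point 1:3 dilution, in duplicate, added 15 min before agonist at 37° C.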

[2] = target: human Arginine Vasopressin Receptor 1b (AVPR1b) (Homo sapiens (Human), UniProt P47901); assay: Vasopressin V1B receptor antagonist assay (AVP-evoked calcium, FLIPR, CHO-AVPR1b cells); format: cell-based
Description: The purpose of the assay is to determine the inhibitory effect of synthesized compounds on the Vasopressin V1b receptor. The assay was performed in Chinese Hamster Ovary (CHO) cells expressing the human Arginine Vasopressin Receptor 1b (AVPR1b). Arginine Vasopressin (AVP) evokes an increase in intracellular calcium in CHO-AVPR1b cells which is measured in a fluorescence assay on the FLIPR^TETRA using calcium sensitive dyes. Test compounds were assessed for their ability to affect the magnitude of the response to AVP, with antagonists showing a concentration-dependent reduction in the AVP-mediated fluorescence.
CHO-AVPR1b cells were maintained in routine culture in T175 Flasks at 37° C., 5% CO2. The growth medium consisted of Ham's F12 media supplemented with 10% v/v fetal bovine serum, 1× non-essential amino acids, and 0.4 mg/ml Geneticin G418.
Cells were harvested from T175 flasks when they were 80-90% confluent by first washing the cell monolayer with PBS and then dissociated using trypsin 0.05%/EDTA (3 mL for a T175 Flask). The flasks were incubated at room temperature until the cells detached. To the cell suspension, 10 ml of growth media was added and the cell density determined using the Vi-Cell automated cell counter. The cells were spun at 1000 rpm for 3 minutes, then the supernatant was carefully removed and discarded. The cell pellet was re-suspended at 6.0e^5 cells/ml in growth media. 25 μL of cells in growth media was dispensed into each well (15,000 cells per well) of a poly-D-lysine coated black, clear bottomed, 384-well plate. The plates were incubated at 37° C., 5% CO2 overnight.
At the start of each assay day, the potency of AVP is assessed and an EC80 concentration determined for subsequent compound profiling. Assays were performed using a two-step addition protocol on the FLIPR^TETRA; first addition of 5 μl of control or test compound at 10× final in assay buffer with 15 min incubation at 37° C., 5% CO2 followed by 10 μl of AVP at 6× final concentration in assay buffer. Changes in fluorescence were monitored for 3 min after both additions on the FLIPR^TETRA using 470-495 nm excitation and 515-575 nm emission wavelengths. The assay buffer consisted of HBSS (+Ca/+Mg) supplemented with 20 mM HEPES, and for the preparation of the AVP agonist only, 0.1% w/v bovine serum albumin. The assay was initiated by the removal of growth media from the cells and replacement with 45 μl of Calcium-6 dye (Molecular Devices) prepared at 1× in assay buffer. Cells were loaded with dye for 60-90 min at 37° C., 5% CO2 before initiation of the FLIPR^TETRA protocol. […] For compound profiling, test compounds were first serially diluted in DMSO (10-point curve, 1:3 dilutions) then diluted 33.3-fold in assay buffer prior to addition to the dye loaded cells on the FLIPR^TETRA. At the end of the incubation period 10 μl of AVP in assay buffer containing 0.1% BSA was added at the previously determined EC80 concentration.
In-plate controls for the assay include a Nelivaptan concentration-response curve as the reference V1b antagonist and an AVP concentration-response curve to confirm the reproducibility of the EC80 used for the compound challenge.

Chain of human Arginine Vasopressin Receptor 1b (AVPR1b) (P47901 whole entry): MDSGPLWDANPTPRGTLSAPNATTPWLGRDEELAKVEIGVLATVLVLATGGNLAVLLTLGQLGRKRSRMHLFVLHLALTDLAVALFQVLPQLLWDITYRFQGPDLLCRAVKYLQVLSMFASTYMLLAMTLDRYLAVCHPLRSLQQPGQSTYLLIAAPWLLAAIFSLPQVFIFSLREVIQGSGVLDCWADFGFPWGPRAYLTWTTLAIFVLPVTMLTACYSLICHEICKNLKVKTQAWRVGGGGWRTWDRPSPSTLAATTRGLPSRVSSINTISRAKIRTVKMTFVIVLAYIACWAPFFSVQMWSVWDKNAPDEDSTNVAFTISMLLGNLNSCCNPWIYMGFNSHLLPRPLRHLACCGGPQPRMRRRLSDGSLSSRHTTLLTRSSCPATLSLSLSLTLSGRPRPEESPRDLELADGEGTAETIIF
Chain of human Arginine Vasopressin Receptor 1a (AVPR1a) (P37288 whole entry): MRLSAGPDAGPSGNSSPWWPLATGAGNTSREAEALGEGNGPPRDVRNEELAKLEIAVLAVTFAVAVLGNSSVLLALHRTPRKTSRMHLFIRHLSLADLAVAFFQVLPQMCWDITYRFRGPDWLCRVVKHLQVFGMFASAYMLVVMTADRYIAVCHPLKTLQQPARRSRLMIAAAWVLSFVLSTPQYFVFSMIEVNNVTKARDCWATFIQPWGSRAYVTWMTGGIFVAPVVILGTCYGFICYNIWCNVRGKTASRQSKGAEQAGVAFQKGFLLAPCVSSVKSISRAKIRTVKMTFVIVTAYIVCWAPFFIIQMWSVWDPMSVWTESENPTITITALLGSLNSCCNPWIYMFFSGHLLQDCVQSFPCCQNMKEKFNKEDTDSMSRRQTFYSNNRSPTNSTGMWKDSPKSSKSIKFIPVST

IC50 ([1]; in vitro antagonist assay, reference compounds, read-out: V1A IC50) | IC50 ([2]; in vitro antagonist assay, reference compounds) | Structure (SMILES) | IC50 ([1]; read-out: V1a IC50) | IC50 [2]
– | – | COC(=O)N1Cc2cc(Cl)ccc2-n2c(C3CC4(C3)CN(c3ccc(F)cn3)C4)nnc2C1C (single isomer, unassigned) [142A] | < 0.1 µM | > 1 µM
– | – | COC(=O)N1Cc2cc(Cl)ccc2-n2c(C3CC4(C3)CN(c3ccc(F)cn3)C4)nnc2C1C (single isomer, unassigned) [Cpd 142B] | 0.5 to 1 µM | > 1 µM
– | – | CC(C)OC(=O)N1Cc2cc(Cl)ccc2-n2c(C3CC4(C3)CN(c3ccc(F)cn3)C4)nnc2C1C (single isomer, unassigned) [Cpd 163A] | < 0.1 µM | > 1 µM
– | – | COC(=O)N1Cc2cc(Cl)ccc2-n2c(C3CC4(C3)CN(c3cnccn3)C4)nnc2C1C (single isomer, unassigned) [Cpd 165A] | < 0.1 µM | > 1 µM
– | – | COC(=O)N1Cc2cc(Cl)ccc2-n2c(C3CC4(C3)CN(c3ncccn3)C4)nnc2C1C (single isomer, unassigned) [Cpd 166A] | < 0.1 µM | > 1 µM
– | – | CC(C)OC(=O)N1Cc2cc(Cl)ccc2-n2c(C3CC4(C3)CN(c3ncccn3)C4)nnc2C1C (single isomer, unassigned) [Cpd 167A] | 0.1 to 0.5 µM | > 1 µM
– | – | CCOC(=O)N1Cc2cc(Cl)ccc2-n2c(C3CC4(C3)CN(c3ncccn3)C4)nnc2C1C (single isomer, unassigned) [Cpd 168A] | < 0.1 µM | > 1 µM
– | – | CCOC(=O)N1Cc2cc(Cl)ccc2-n2c(C3CC4(C3)CN(c3ccc(F)cn3)C4)nnc2C1C (single isomer, unassigned) [Cpd 169A] | < 0.1 µM | > 1 µM
– | – | COC(=O)N1Cc2cc(Cl)ccc2-n2c(C3CC4(C3)CN(c3ncc(F)cn3)C4)nnc2C1C (single isomer, unassigned) [Cpd 170A] | < 0.1 µM | > 1 µM
– | – | CC1c2nnc(C3CC4(C3)CN(c3ncccn3)C4)n2-c2ccc(Cl)cc2CN1C(=O)OC1CC1 (single isomer, unassigned) [Cpd 171A] | < 0.1 µM | > 1 µM
– | – | CC1c2nnc(C3CC4(C3)CN(c3ncccn3)C4)n2-c2ccc(Cl)cc2CN1C(=O)OC1CC1 (single isomer, unassigned) [Cpd 171B] | 0.5 to 1 µM | > 1 µM
– | – | CC1c2nnc(C3CC4(C3)CN(c3ccc(F)cn3)C4)n2-c2ccc(Cl)cc2CN1C(=O)C1(F)CC1 (single isomer, unassigned) [Cpd 174A] | < 0.1 µM | > 1 µM
– | – | CC1c2nnc(C3CC4(C3)CN(c3ccc(F)cn3)C4)n2-c2ccc(Cl)cc2CN1C(=O)C(C)(C)F (single isomer, unassigned) [Cpd 178A] | < 0.1 µM | > 1 µM
– | – | CC1c2nnc(C3CC4(C3)CN(c3ccc(F)cn3)C4)n2-c2ccc(Cl)cc2CN1C (single isomer, unassigned) [Cpd 179A] | < 0.1 µM | > 1 µM
– | – | CC1c2nnc(C3CC4(C3)CN(c3ccccn3)C4)n2-c2ccc(Cl)cc2CN1C(=O)C1(F)CC1 (single isomer, unassigned) [Cpd 181A] | < 0.1 µM | > 1 µM
– | – | CC1c2nnc(C3CC4(C3)CN(c3ccc(F)cn3)C4)n2-c2ccc(Cl)cc2CN1C(=O)OC1CC1 (single isomer, unassigned) [Cpd 191A] | < 0.1 µM | > 1 µM
– | – | CC1c2nnc(C3CC4(C3)CN(c3ncc(F)cn3)C4)n2-c2ccc(Cl)cc2CN1C(=O)OC1CC1 (single isomer, unassigned) [Cpd 192A] | < 0.1 µM | > 1 µM
– | – | CC(C)OC(=O)N1Cc2cc(Cl)ccc2-n2c(C3CC4(C3)CN(c3ncc(F)cn3)C4)nnc2C1C (single isomer, unassigned) [Cpd 201A] | < 0.1 µM | > 1 µM
– | – | CC1c2nnc(C3CC4(C3)CN(c3ncccn3)C4)n2-c2ccc(Cl)cc2CN1C(=O)OC(CF)CF (single isomer, unassigned) [Cpd 202A] | < 0.1 µM | > 1 µM
– | – | CC1c2nnc(C3CC4(C3)CN(c3ccc(F)cn3)C4)n2-c2ccc(Cl)cc2CN1C(=O)OC(CF)CF (single isomer, unassigned) [Cpd 203A] | < 0.1 µM | > 1 µM

IC50 ([1]; in vitro antagonist assay, reference compounds, read-out: V1A IC50) | IC50 ([2]; in vitro antagonist assay, reference compounds) | Structure (SMILES) | IC50 ([1]; read-out: V1a IC50) | IC50 [2]
< 0.1 µM | > 1 µM | CN1Cc2cc(Cl)ccc2-n2c(nnc2[C@H]2CC[C@H](Oc3ccccn3)CC2)C1 [balovaptan, reference compound] | – | –
– | – | CN1Cc2cc(Cl)ccc2-n2c(nnc2C2CC3(C2)CN(c2ccc(F)cn2)C3)C1 [compound 1, 8-chloro-1-(2-(5-fluoropyridin-2-yl)-2-azaspiro[3.3]heptan-6-yl)-5-methyl-5,6-dihydro-4H-benzo[f][1,2,4]triazolo[4,3-a][1,4]diazepine] | < 0.1 µM | > 1 µM
– | – | CN1Cc2cc(Cl)ccc2-n2c(nnc2C2CC3(C2)CN(c2ccccn2)C3)C1 [compound 2] | < 0.1 µM | > 1 µM
– | – | CN1Cc2cc(Cl)ccc2-n2c(nnc2C2CC3(C2)CN(c2cnccn2)C3)C1 [compound 3] | < 0.1 µM | > 1 µM
– | – | CN1Cc2cc(Cl)ccc2-n2c(nnc2C2CC3(C2)CN(c2ncccc2F)C3)C1 [compound 4] | < 0.1 µM | > 1 µM
– | – | CN1Cc2cc(Cl)ccc2-n2c(nnc2C2CC3(C2)CN(c2cccc(F)n2)C3)C1 [compound 8] | < 0.1 µM | > 1 µM
– | – | CN1Cc2cc(Cl)ccc2-n2c(nnc2C2CC3(C2)CN(C(=O)C2CC2)C3)C1 [compound 28] | < 0.1 µM | > 1 µM
– | – | COCCN1Cc2cc(Cl)ccc2-n2c(nnc2C2CC3(C2)CN(c2ccccn2)C3)C1 [compound 39, 8-chloro-5-(2-methoxyethyl)-1-(2-(pyridin-2-yl)-2-azaspiro[3.3]heptan-6-yl)-5,6-dihydro-4H-benzo[f][1,2,4]triazolo[4,3-a][1,4]diazepine] | < 0.1 µM | > 1 µM
– | – | Clc1ccc2c(c1)CN(C1CCC1)Cc1nnc(C3CC4(C3)CN(c3ccccn3)C4)n1-2 [compound 41] | < 0.1 µM | > 1 µM
– | – | Fc1ccc(N2CC3(CC(c4nnc5n4-c4ccc(Cl)cc4CN(C4CCC4)C5)C3)C2)nc1 [compound 42] | < 0.1 µM | > 1 µM
– | – | CCN1Cc2cc(Cl)ccc2-n2c(nnc2C2CC3(C2)CN(c2ccccn2)C3)C1 [compound 45] | < 0.1 µM | > 1 µM
– | – | CCN1Cc2cc(Cl)ccc2-n2c(nnc2C2CC3(C2)CN(c2cnccn2)C3)C1 [compound 46] | < 0.1 µM | > 1 µM
– | – | CC(C)N1Cc2cc(Cl)ccc2-n2c(nnc2C2CC3(C2)CN(c2cnccn2)C3)C1 [compound 47] | < 0.1 µM | > 1 µM
– | – | CC(C)N1Cc2cc(Cl)ccc2-n2c(nnc2C2CC3(C2)CN(c2ccccn2)C3)C1 [compound 48] | < 0.1 µM | > 1 µM
– | – | CCN1Cc2cc(Cl)ccc2-n2c(nnc2C2CC3(C2)CN(c2ccc(F)cn2)C3)C1 [compound 49] | < 0.1 µM | > 1 µM
– | – | CC(C)N1Cc2cc(Cl)ccc2-n2c(nnc2C2CC3(C2)CN(c2ccc(F)cn2)C3)C1 [compound 50] | < 0.1 µM | > 1 µM
– | – | FC(F)CN1Cc2cc(Cl)ccc2-n2c(nnc2C2CC3(C2)CN(c2ccccn2)C3)C1 [compound 52] | < 0.1 µM | > 1 µM
– | – | CC(C)N1Cc2cc(Cl)ccc2-n2c(nnc2C2CC3(C2)CN(c2ncccc2F)C3)C1 [compound 54] | < 0.1 µM | > 1 µM
– | – | Clc1ccc2c(c1)CN(C1CC1)Cc1nnc(C3CC4(C3)CN(c3ccccn3)C4)n1-2 [compound 56] | < 0.1 µM | > 1 µM
